Laboratory results: patent US5157039A, “2-quinolinyl methoxy compounds, medical uses and intermediates therefor” (Leo Pharmaceutical Products Ltd., priority 1985, dated 1992)
Read-outs that look alike come from different tables or passages of the source.

Legend:
rat peritoneal mast cell = assay: Rat peritoneal mast cell histamine release; assay type: cell-based
Excerpt: Products formed by the enzyme responsible for the first step in leukotriene synthesis, 5-lipoxygenase, which is probably the target enzyme of compounds of the present invention, play a role as mediators of mast cell degranulation. One of the effects of mast cell degranulation is the release of histamine. Thus, 5-lipoxygenase inhibitors may suppress histamine release from mast cells.
In order to investigate this possibility, cells obtained from washings of the peritoneal cavity of rats, were studied. These peritoneal washings contain mainly macrophages and mast cells. The mast cells were passively sensitized with IgE-antibodies to ovalbumin, and then challenged with the antigen, ovalbumin, to induce histamine release. Alternatively, the unsensitized mast cells were exposed to an […], compound 48/80*, which induces histamine release independently of immunologic mechanisms. Histamine released to the medium after degranulation of the peritoneal mast cells was measured by a fluorometric method.
* (the condensation product of N-methyl-p-methoxyphenethylamine with formaldehyde)

[1] = tested on: leukotriene D4-induced contraction of guinea-pig ileum strips; assay: Leukotriene D4-induced contraction of isolated guinea-pig ileum strips (leukotriene antagonism); conditions: leukotriene D4 10^-9 M; atropine and indomethacin present
Excerpt: Antagonism of leukotriene mediated effects at the receptor level, in addition to inhibition of leukotriene synthesis, is an additional mode of action of some of the present compounds. Obviously, this dual mechanism is of potentially great interest in preventing leukotriene mediated reactions.
Leukotriene antagonists may be identified by observing the contractions elicited in preparations of guinea-pig ileum strips suspended in physiological buffers by addition of pure leukotriene D4. The ileum strips are connected to an isotonic transducer, and the contractions are continuously recorded on a multichannel recorder.
Before addition of leukotriene D4, atropine and indomethacin are added to the buffer in order to block any cholinergic or prostaglandin-mediated contractile effects. Test compounds to be studied with respect to leukotriene antagonism are dissolved in dimethylsulphoxide (DMSO) and added to the organ bath 2 minutes prior to addition of leukotriene D4 at 10^-9 M (final concentration), the final concentration of DMSO being 0.1%, a concentration which can be shown not to affect the ileum response to leukotriene D4. The test compounds may be added at various concentrations, often beginning at 10^-6 M and then decreasing the concentration in case of antagonism.

[2] = tested on: IL-8 mRNA in peripheral blood mononuclear cells (PBMC); assay: IL-8 mRNA synthesis in LPS-stimulated peripheral blood mononuclear cells (cDNA probe); assay type: cell-based; conditions: submicromolar concentrations
Excerpt: (§1) These effects were obtained using submicromolar concentrations of the two compounds.

release of leukotrienes = assay: A 23187-induced leukotriene release in the peritoneal cavity of rats in vivo; set-up: species or system rat; conditions: administered prior to intraperitoneal A 23187
Procedure: Two in vivo methods were used to assess the effect of either oral or parenteral administration of the compounds to experimental animals on the release of leukotrienes. In the first method, calcium ionophore A 23187 was injected into the peritoneal cavity of adrenalectomized and anaestesized rats. 5 minutes later the cavity was washed, and the leukotrienes were extracted with ethanol and redissolved in water or buffer. The amount of leukotriene D4 released in response to A 23187 was determined by bioassay, using the contraction of an isolated guinea-pig ileum-strip as indicator. Leukotriene C4 and B4 were measured by commercially available radioimmunoassays (New England Nuclear, Dreieich, West Germany, and The Radiochemical Centre, Amersham, U. K., respectively).

5-lipoxygenase = 5-lipoxygenase activity in vitro in A 23187-stimulated rat peritoneal cells (radiolabelled arachidonic acid metabolites); assay type: cell-based; conditions: final concentrations from 10^-6 M and above
Procedure: The biological activity of the present compounds was determined both in vitro and in vivo. The following method was used to assay 5-lipoxygenase activity in vitro: Rat peritoneal cells were harvested by i.p. injection of 10 ml Hank's balanced salt solution (GIBCO), cat. No. 4025, U.S.A.) containing 12.5 U/ml sodium heparin (Leo, Denmark) in anaesthesized rats. The resulting cell suspension, which mainly contained macrophages, was transferred to a test tube and washed twice by centrifugation (200 g, 10 min.) and resuspended in Hank's balanced salt solution containing 0.5% bovine serum albumin (Sigma Chem. Co., U.S.A.). The cells from 6 rats were finally resuspended in Hank's balanced salt solution containing 5 μCi (1-^14 C) arachidonic acid (The Radiochemical Centre, Amersham, U.K.) and incubated for 90 minutes at 30° C. […] An aliquot of the supernatant was counted by liquid scintillation spectrometry in order to calculate the total radioactive release induced by A 23187 in presence of drugs. […] Radioactive spots were detected by autoradiography (AGFA-GEVAERT, Osray-RPI X-ray film, Belgium), and changes induced by drugs in the metabolic pattern of arachidonic acid were quantified by a laser densitometer (LKB, Ultroscan™ 2202, Bromma, Sweden) in combination with an integrating computer (SP 4100, SpectraPhysics, San Jose, Calif., U.S.A.). […]

cyclooxygenase = assay: Synthesis of cyclooxygenase products in A 23187-stimulated rat peritoneal cells (same assay); assay type: cell-based; conditions: final concentrations from 10^-6 M and above
Procedure: The biological activity of the present compounds was determined both in vitro and in vivo. The following method was used to assay 5-lipoxygenase activity in vitro: Rat peritoneal cells were harvested by i.p. injection of 10 ml Hank's balanced salt solution (GIBCO), cat. No. 4025, U.S.A.) containing 12.5 U/ml sodium heparin (Leo, Denmark) in anaesthesized rats. The resulting cell suspension, which mainly contained macrophages, was transferred to a test tube and washed twice by centrifugation (200 g, 10 min.) and resuspended in Hank's balanced salt solution containing 0.5% bovine serum albumin (Sigma Chem. Co., U.S.A.). The cells from 6 rats were finally resuspended in Hank's balanced salt solution containing 5 μCi (1-^14 C) arachidonic acid (The Radiochemical Centre, Amersham, U.K.) and incubated for 90 minutes at 30° C. This caused labelling of cell membrane phospholipids as radioactive arachidonic acid was incorporated in the 2-position of the glycerol moiety. Excess arachidonic acid was then removed by washing the cells twice as described above. The cells were finally resuspended in the same solution at 10^7 cells/ml. 475 μl of the cell suspension was preincubated at 37° C. for 5 minutes with either 5 μl DMSO (control tube), or 5 μl of a drug solution in DMSO. Then 20 μl of a mixture of equal volumes of the calcium ionophore A 23187, 10^-4 M in ethanol (Calbiochem, U.S.A.), and 0.5M CaCl2 in water was added. The final concentration of A 23187 was thus 2×10^-6 M, transferred to an ice-bath and centrifugated for 10 minutes at 3,000 g (4° C.). An aliquot of the supernatant was counted by liquid scintillation spectrometry in order to calculate the total radioactive release induced by A 23187 in presence of drugs. […] Radioactive spots were detected by autoradiography (AGFA-GEVAERT, Osray-RPI X-ray film, Belgium), and changes induced by drugs in the metabolic pattern of arachidonic acid were quantified by a laser densitometer (LKB, Ultroscan™ 2202, Bromma, Sweden) in combination with an integrating computer (SP 4100, SpectraPhysics, San Jose, Calif., U.S.A.). […]

[3] = tested on: asthmatic reaction (airway resistance) in guinea-pigs; assay: Asthmatic reaction in ovalbumin-hypersensitive guinea-pigs (Konzett-Rossler); assay type: in vivo, guinea-pig; conditions: ovalbumin i.v. challenge; mepyramine, indomethacin and propranolol pretreated
Excerpt: The other method was used to measure a physiological consequence of leukotriene release in the lungs, an asthmatic attack. Guinea-pigs hypersensitive to ovalbumin were anaestesized and mechanically ventilated with a constant airvolumen ad modum Konzett-Rossler. The animals were pretreated with mepyramine, indomethacin and propranolol to avoid interference with endogenous production of histamine, prostaglandins and β-adrenergic mechanisms, respectively. They were then challenged with an intravenous injection of ovalbumin, and the increase in airway resistance was measured by the respiratory overflow.

[4] = tested on: IL-1 release from inflammatory cells; assay: IL-1 release from inflammatory cells; assay type: cell-based
Excerpt: as §1

IL-1 mRNA in PBMC = assay: IL-1 mRNA production in LPS-stimulated PBMC; assay type: cell-based
Excerpt: as §1

gene expression of IL-8 = assay: Gene expression of IL-8 in endothelial cells, fibroblasts and keratinocytes stimulated by LPS or IL-1; assay type: cell-based
Excerpt: as §1

[5] = antigen ovalbumin, passively sensitized mast cells, read-out: Inhibition (%) of histamine release induced by Antigen
[6] = compound 48/80, unsensitized mast cells, read-out: Inhibition (%) of histamine release induced by Cp. 48/80

Row | Structure (SMILES) | inhibition at 10 µM (rat peritoneal mast cell; [5]) [%] | inhibition at 10 µM (rat peritoneal mast cell; [6]) [%] | concentration at which leukotriene D4-induced contraction is inhibited [1] | other results
1 | c1ccc(CNc2ccc(OCc3ccc4ccccc4n3)cc2)cc1 [Ex. 38, 4-(2'-Quinolylmethoxy)-N-benzylaniline] | 91 | 85 |  | 
2 | CCCCNc1cccc(OCc2ccc3ccccc3n2)c1 [Example 23, 3-(2'-Quinolylmethoxy)-N-n-butylaniline] |  |  | submicromolar range | 
3 | NCCCCCCNc1ccc(OCc2ccc3ccccc3n2)cc1 [Ex. 66, 4-(2'-Quinolylmethoxy)-N-1"-(6"-amino-n-hexyl)aniline] | 100 | 65 |  | 
4 | O=C(O)c1cccc(CN(Cc2ccccc2)c2ccc(OCc3ccc4ccccc4n3)cc2)c1 [ETH647] |  |  |  | synthesis of IL-8 messenger RNA [2]: inhibit the synthesis of messenger RNA
5 | CCCCNc1ccc(OCc2ccc3ccccc3n2)cc1 [Example 22, 4-(2'-Quinolylmethoxy)-N-n-butylaniline] | 100 | 75 | submicromolar range | 
6 | CCCNc1ccc(OCc2ccccn2)cc1 [Ex. 70] | 100 | 45 |  | 
7 | Clc1cc(OCc2ccncc2)ccc1NCc1ccccc1 [Ex. 78, part C, 2-Chloro-4-(4'-pyridylmethoxy)-N-benzylaniline] | 96 | 95 | submicromolar range | 
8 | CNc1ccc(OCc2cccnc2)cc1 [OT 3447, 4-(3'-Pyridylmethoxy)-N-methylaniline] |  |  |  | leukotriene B4 formation (radioimmunoassay) (release of leukotrienes): substantial inhibition; leukotriene C4 formation (radioimmunoassay) (release of leukotrienes): substantial inhibition; leukotriene D4 formation (bioassay, guinea-pig ileum-strip) (release of leukotrienes): substantial inhibition; production of 5-HETE (5-lipoxygenase): significant and specific decrease; production of leukotriene B4 (5-lipoxygenase): significant and specific decrease; synthesis of prostaglandin D2 (cyclooxygenase): not affected; synthesis of the cyclooxygenase product HHT (cyclooxygenase): not affected; synthesis of thromboxane B2 (cyclooxygenase): not affected; asthmatic reaction [3]: significantly reduced
9 | CCCN(CCC)c1ccc(OCc2ccc3ccccc3n2)cc1 [Ex. 77, 4-(2'-Quinolylmethoxy)-N,N-di-n-propylaniline] | 100 | 92 |  | 
10 | CN(C)c1cccc(OCc2ccc3ccccc3n2)c1 [Example 18, 3-(2'-Quinolylmethoxy)-N,N-dimethylaniline] |  |  | submicromolar range | 
11 | c1ccc(CNc2cccc(OCc3ccccn3)c2)cc1 [Ex. 68, 3-(2'-Pyridylmethoxy)-N-benzylaniline] | 45 | 17 |  | 
12 | CNc1ccc(OCc2ccc3ccccc3n2)cc1 [Ex. 10, part C, 4-(2'-Quinolylmethoxy)-N-methylaniline] | 51 | 19 |  | 
13 | Clc1cc(NCc2ccccc2)ccc1OCc1ccncc1 [Ex. 79, part C, 3-Chloro-4-(4'-pyridylmethoxy)-N-benzylaniline] | 100 | 95 |  | 
14 | O=C(O)c1ccc(CN(Cc2cccc(F)c2)c2ccc(OCc3ccc4ccccc4n3)cc2)cc1 [ETH615, 4-(2'-quinolylmethoxy)-N-(3"-fluorobenzyl)-N-(4'"-carboxybenzyl)aniline] |  |  |  | IL-1 release [4]: suppression of IL-1 release; IL-1 mRNA production (IL-1 mRNA in PBMC): inhibits IL-1 mRNA production; synthesis of IL-8 messenger RNA [2]: inhibit the synthesis of messenger RNA; gene expression of IL-8 in endothelial cells (gene expression of IL-8; endothelial cells stimulated by LPS or IL-1): suppress the gene expression of IL-8; gene expression of IL-8 in fibroblasts (gene expression of IL-8; fibroblasts stimulated by LPS or IL-1): suppress the gene expression of IL-8; gene expression of IL-8 in keratinocytes (gene expression of IL-8; keratinocytes stimulated by LPS or IL-1): suppress the gene expression of IL-8
15 | c1ccc(CNc2cccc(OCc3ccc4ccccc4n3)c2)cc1 [Example 39, 3-(2'-Quinolylmethoxy)-N-benzylaniline] | 100 | 95 | submicromolar range | 
16 | CNc1cccc(OCc2ccc3ccccc3n2)c1 [11 (part C), 3-(2'-Quinolylmethoxy)-N-methylaniline] |  |  | submicromolar range | 
17 | CC(=O)Nc1cccc(OCc2ccc3ccccc3n2)c1 [11 (part A), 3-(2'-Quinolylmethoxy)acetanilide] |  |  | submicromolar range | 
